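Cultured in 96-well plates, cells were exposed to test compound for 48 hours across five concentrations. Here, GI50 denotes the concentration required for 50% inhibition of growth.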 Active and inactive are the calls of the source. No stated cut-off is given here; in the data, active = GI50 up to about 1.1 µM and inactive = higher.
Tests used:
Assay in all cases: inhibition of tumour cell growth, NCI panel, 48 h
EKVX = system: EKVX
MOLT-4 = system: MOLT-4
SNB-19 = system: SNB-19
TK-10 = system: TK-10
HOP-62 = system: HOP-62
M14 = system: M14
NCI-H226 = system: NCI-H226
NCI-H23 = system: NCI-H23
COLO 205 = system: COLO 205
IGROV-1 = system: IGROV-1
SF-539 = system: SF-539
Hs-578T = system: Hs-578T
SK-OV-3 = system: SK-OV-3
SK-MEL-2 = system: SK-MEL-2
SF-268 = system: SF-268
RPMI-8226 = system: RPMI-8226
OVCAR-3 = system: OVCAR-3
NCI-H460 = system: NCI-H460
SW-620 = system: SW-620
HOP-92 = system: HOP-92
A549 = system: A549
CCRF-CEM = system: CCRF-CEM
ACHN = system: ACHN
HCT-116 = system: HCT-116
HCT-15 = system: HCT-15
SK-MEL-28 = system: SK-MEL-28
LOX IMVI = system: LOX IMVI
SR = system: SR
BT-549 = system: BT-549
OVCAR-5 = system: OVCAR-5
SNB-75 = system: SNB-75
UO-31 = system: UO-31
OVCAR-8 = system: OVCAR-8
K562 = system: K562
SF-295 = system: SF-295
HL-60 = system: HL-60
UACC-62 = system: UACC-62
786-0 = system: 786-0
HT-29 = system: HT-29
RXF 393 = system: RXF 393
OVCAR-4 = system: OVCAR-4
MDA-MB-435 = system: MDA-MB-435
U-251 = system: U-251
PC-3 = system: PC-3
MDA-N = system: MDA-N
UACC-257 = system: UACC-257
NCI/ADR-RES = system: NCI/ADR-RES
SN12C = system: SN12C
KM12 = system: KM12
MDA-MB-231 = system: MDA-MB-231
A498 = system: A498
HCC 2998 = system: HCC 2998
DU-145 = system: DU-145
T47D = system: T47D
CAKI-1 = system: CAKI-1

**Q.** With `Cc1ccc2c(c1)C(=C(C#N)C#N)CCCS2(=O)=O` as the compound, how does the GI50 (EKVX) read?
**A.** > 100 µM (inactive)

**Q.** And the GI50 (MOLT-4)?
**A.** > 100 µM (inactive)

**Q.** And the GI50 (SNB-19)?
**A.** > 100 µM (inactive)

**Q.** What about the GI50 (TK-10) of the same compound?
**A.** > 100 µM (inactive)

**Q.** What about the GI50 (HOP-62) of the same compound?
**A.** > 100 µM (inactive)

**Q.** What about the GI50 (M14) of the same compound?
**A.** > 100 µM (inactive)

**Q.** And the GI50 (NCI-H226)?
**A.** > 100 µM (inactive)

**Q.** And the GI50 (NCI-H23)?
**A.** > 100 µM (inactive)

**Q.** What about the GI50 (COLO 205) of the same compound?
**A.** > 100 µM (inactive)

**Q.** What about the GI50 (IGROV-1) of the same compound?
**A.** > 100 µM (inactive)

**Q.** And the GI50 (SF-539)?
**A.** > 100 µM (inactive)

**Q.** What about the GI50 (Hs-578T) of the same compound?
**A.** > 100 µM (inactive)

**Q.** And the GI50 (SK-OV-3)?
**A.** > 100 µM (inactive)

**Q.** What about the GI50 (SK-MEL-2) of the same compound?
**A.** > 100 µM (inactive)

**Q.** And the GI50 (SF-268)?
**A.** > 100 µM (inactive)

**Q.** And the GI50 (RPMI-8226)?
**A.** > 100 µM (inactive)

**Q.** What about the GI50 (OVCAR-3) of the same compound?
**A.** > 100 µM (inactive)

**Q.** And the GI50 (NCI-H460)?
**A.** > 100 µM (inactive)

**Q.** What about the GI50 (SW-620) of the same compound?
**A.** > 100 µM (inactive)

**Q.** And the GI50 (HOP-92)?
**A.** > 100 µM (inactive)

**Q.** What about the GI50 (A549) of the same compound?
**A.** > 100 µM (inactive)

**Q.** And the GI50 (CCRF-CEM)?
**A.** > 100 µM (inactive)

**Q.** What about the GI50 (ACHN) of the same compound?
**A.** > 100 µM (inactive)

**Q.** And the GI50 (HCT-116)?
**A.** > 100 µM (inactive)

**Q.** And the GI50 (HCT-15)?
**A.** > 100 µM

**Q.** What about the GI50 (SK-MEL-28) of the same compound?
**A.** > 100 µM (inactive)

**Q.** What about the GI50 (LOX IMVI) of the same compound?
**A.** > 100 µM (inactive)

**Q.** And the GI50 (SR)?
**A.** > 100 µM (inactive)

**Q.** What about the GI50 (BT-549) of the same compound?
**A.** > 100 µM (inactive)

**Q.** And the GI50 (OVCAR-5)?
**A.** > 100 µM (inactive)

**Q.** What about the GI50 (SNB-75) of the same compound?
**A.** > 100 µM (inactive)

**Q.** And the GI50 (UO-31)?
**A.** > 100 µM (inactive)

**Q.** And the GI50 (OVCAR-8)?
**A.** > 100 µM (inactive)

**Q.** And the GI50 (K562)?
**A.** > 100 µM (inactive)

**Q.** What about the GI50 (SF-295) of the same compound?
**A.** > 100 µM (inactive)

**Q.** And the GI50 (HL-60)?
**A.** > 100 µM (inactive)

**Q.** What about the GI50 (UACC-62) of the same compound?
**A.** > 100 µM (inactive)

**Q.** What about the GI50 (786-0) of the same compound?
**A.** > 100 µM (inactive)

**Q.** And the GI50 (HT-29)?
**A.** > 100 µM (inactive)

**Q.** And the GI50 (RXF 393)?
**A.** > 100 µM (inactive)

**Q.** What about the GI50 (OVCAR-4) of the same compound?
**A.** > 100 µM (inactive)

**Q.** What about the GI50 (MDA-MB-435) of the same compound?
**A.** > 100 µM (inactive)

**Q.** What about the GI50 (U-251) of the same compound?
**A.** > 100 µM (inactive)

**Q.** What about the GI50 (PC-3) of the same compound?
**A.** > 100 µM (inactive)

**Q.** And the GI50 (MDA-N)?
**A.** > 100 µM (inactive)

**Q.** What about the GI50 (UACC-257) of the same compound?
**A.** > 100 µM (inactive)

**Q.** And the GI50 (NCI/ADR-RES)?
**A.** > 100 µM (inactive)

**Q.** What about the GI50 (SN12C) of the same compound?
**A.** > 100 µM (inactive)

**Q.** What about the GI50 (KM12) of the same compound?
**A.** > 100 µM (inactive)

**Q.** And the GI50 (MDA-MB-231)?
**A.** > 100 µM (inactive)

**Q.** And the GI50 (A498)?
**A.** > 100 µM (inactive)

**Q.** What about the GI50 (HCC 2998) of the same compound?
**A.** > 100 µM (inactive)

**Q.** What about the GI50 (DU-145) of the same compound?
**A.** > 100 µM (inactive)

**Q.** And the GI50 (T47D)?
**A.** > 100 µM (inactive)

**Q.** What about the GI50 (CAKI-1) of the same compound?
**A.** > 100 µM (inactive)
